Measured values: patent US7829665B2 (priority 2005, dated 2010)
Where two headings read alike, the source gives them in different places.

Tests used:
[1] = target: T1, full-length NS3/NS4A-2 (HCV NS3 protease) (Hepatitis C virus genotype 1a, UniProt P27958); assay: NS3-NS4 protease assay / NS3 inhibition assay (RETS1 substrate, fluorescence kinetic read); format: biochemical
T1 construct: Recombinant E. coli or Baculovirus full-length NS3 was diluted to 3.33 μM with assay buffer; made in house; host or cells: E. coli or baculovirus (BV) expression system
T1 sequence (P27958 1027-1657): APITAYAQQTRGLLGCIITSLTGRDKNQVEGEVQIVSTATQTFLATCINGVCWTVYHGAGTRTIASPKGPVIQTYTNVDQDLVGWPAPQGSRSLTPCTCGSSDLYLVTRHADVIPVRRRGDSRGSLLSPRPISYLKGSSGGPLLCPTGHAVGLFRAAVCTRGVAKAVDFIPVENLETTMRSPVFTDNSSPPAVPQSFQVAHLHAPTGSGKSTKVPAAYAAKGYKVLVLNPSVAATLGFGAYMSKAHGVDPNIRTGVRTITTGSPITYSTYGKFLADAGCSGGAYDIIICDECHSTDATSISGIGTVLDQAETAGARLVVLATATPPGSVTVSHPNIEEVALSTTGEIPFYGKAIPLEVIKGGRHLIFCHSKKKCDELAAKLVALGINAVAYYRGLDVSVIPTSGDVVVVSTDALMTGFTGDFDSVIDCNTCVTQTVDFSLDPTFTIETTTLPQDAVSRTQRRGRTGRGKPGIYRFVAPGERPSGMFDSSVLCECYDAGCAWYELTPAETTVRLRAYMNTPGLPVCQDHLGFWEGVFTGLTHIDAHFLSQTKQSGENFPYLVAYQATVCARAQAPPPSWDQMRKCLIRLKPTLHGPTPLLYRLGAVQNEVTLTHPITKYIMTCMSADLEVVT
In short: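 Ki values come from IC50 fits corrected via Ki=IC50/(1+[S]/Km), with Km 2.03 μM for E. coli and 1.74 μM for baculovirus full-length NS3. Enzyme (2 or 3 nM NS3, respectively, complexed with NS4A-2) sat with compound, top concentration 50 microM, for 10 min at room temperature. Cleavage of RETS1 (8 μM working solution) was then followed by fluorescence (335/495 nm) over 30 min.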

[2] = tested on: HCV sub-genomic replicon in GS4.3 cells (HuH-7 hepatoma cells); assay: Quantitation by ELISA of Neomycin phosphotransferase II (NPTII) in the HCV sub-genomic replicon, GS4.3; format: cell-based, hepatitis C virus; conditions: Hepatitis C virus, Huh-7; GS4.3 cells, 72 h incubation, NPTII ELISA; read-out: Replicon EC50
In short: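 Replicon-bearing HuH-7 (GS4.3) cells were exposed to compounds for 72 h in G418-free medium, top final concentration 10 μM, 1% DMSO. Lysates went to an NPTII ELISA read at 450 nm. Signal was normalised to DMSO-treated wells and EC50 was derived by four-parameter curve fitting.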

[3] = recombinant E. coli or Baculovirus full-length NS3 with NS4A-2, read-out: NS3-NS4 IC50

SMILES	IC50 [1, 3] [nM]	EC50 [2] [nM]	IC50 [1] [nM]
CC(C)(C)OC(=O)N[C@H]1CCCCC/C=C\[C@@H]2C[C@@]2(C(=O)NS(=O)(=O)C2(Cc3ccccc3)CC2)NC(=O)[C@@H]2C[C@@H](OC(=O)N3Cc4ccccc4C3)CN2C1=O [Compound 101]	< 100	< 100	–
CC(C)(C)OC(=O)N[C@H]1CCCCC/C=C\[C@@H]2C[C@@]2(C(=O)NS(=O)(=O)C(C)(C)C)NC(=O)[C@@H]2C[C@@H](OC(=O)N3Cc4ccccc4C3)CN2C1=O [Compound 102]	< 100	< 1000	–
N#CNC(=O)[C@@]12C[C@H]1/C=C\CCCCC[C@H](NC(=O)C1CC1)C(=O)N1C[C@H](OC(=O)N3Cc4cccc(F)c4C3)CC1C(=O)N2 (stereo partly drawn) [Compound 638]	< 1000	> 10000	–
O=C(NC1CCCC1)N[C@H]1CCCCC/C=C\[C@@H]2C[C@@]2(C(=O)NS(=O)(=O)C2CC2)NC(=O)C2C[C@@H](OC(=O)N3Cc4cccc(Cl)c4C3)CN2C1=O (stereo partly drawn) [Compound 180]	< 100	< 100	–
CC(C)(C)OC(=O)N[C@H]1CCCCC/C=C\[C@@H]2C[C@@]2(C(=O)NS(=O)(=O)C2CC2)NC(=O)[C@@H]2C[C@@H](OC(=O)N3Cc4ccc(F)cc4C3)CN2C1=O [Compound 111]	< 100	< 100	–
O=C1N[C@]2(C(=O)NCC3CC3)C[C@H]2/C=C\CCCCC[C@H](NCc2ccc(F)c(F)c2)C(=O)N2C[C@H](OC(=O)N3Cc4cccc(F)c4C3)C[C@@H]12 [Compound 626]	< 1000	< 10000	–
CC(NC(=O)[C@@]12C[C@H]1/C=C\CCCCC[C@H](NC(=O)OC(C)(C)C)C(=O)N1C[C@H](OC(=O)N3Cc4cccc(F)c4C3)C[C@H]1C(=O)N2)c1ccncc1 (stereo partly drawn) [Compound 618]	< 100	< 10000	–
CC(C)(C)OC(=O)N[C@H]1CCCCC/C=C\[C@@H]2C[C@@]2(C(=O)NS(=O)(=O)C2CC2)NC(=O)C2Cc3cc(Oc4cccc(C(F)(F)F)c4)ccc3CN2C1=O (stereo partly drawn) [Compound 2008, tert-Butyl (1aS,9S,19aR,Z)-19a-(cyclopropylsulfonylcarbamoyl)-10,18-dioxo-15-(3-(trifluoromethyl)phenoxy)-1a,4,5,6,7,8,9,10,12,17,17a,18,19,19a-tetradecahydro-1H-1,14-diaza-bicyclo[13.1.0]hexadeca-1(15), 2-dieno[11,12-b]isoquinolin-9-ylcarbamate]	< 1000	< 10000	–
CCC(C)(C)Nc1c(N[C@H]2CCCCC/C=C\[C@@H]3C[C@@]3(C(=O)NS(=O)(=O)C3CC3)NC(=O)[C@@H]3C[C@@H](OC(=O)N4Cc5cccc(F)c5C4)CN3C2=O)c(=O)c1=O [Compound 194]	< 100	< 10000	–
O=C(CCC(F)(F)F)N[C@H]1CCCCC/C=C\[C@@H]2C[C@@]2(C(=O)O)NC(=O)[C@@H]2C[C@@H](OC(=O)N3Cc4cccc(F)c4C3)CN2C1=O [Compound 135]	< 100	< 10000	–
C[C@@H](NC(=O)[C@@]12C[C@H]1/C=C\CCCCC[C@H](NC(=O)OC(C)(C)C)C(=O)N1C[C@H](OC(=O)N3Cc4cccc(F)c4C3)C[C@H]1C(=O)N2)c1ccc(F)cn1 [Compound 629]	< 1000	< 10000	–
CC(C)(C)CN[C@H]1CCCCC/C=C\[C@@H]2C[C@@]2(C(=O)NS(=O)(=O)C2CC2)NC(=O)[C@@H]2C[C@@H](OC(=O)N3Cc4cccc(F)c4C3)CN2C1=O [Compound 920]	< 100	< 100	–
Cc1ccccc1S(=O)(=O)NC(=O)[C@@]12C[C@H]1/C=C\CCCCC[C@H](N)C(=O)N1C[C@H](OC(=O)N3Cc4cccc(F)c4C3)C[C@H]1C(=O)N2 [Compound 159]	–	< 1000	< 100
CC(C)(C)OC(=O)N[C@H]1CCC(F)(F)CC/C=C\[C@@H]2C[C@@]2(C(=O)O)NC(=O)[C@@H]2C[C@@H](OC(=O)N3CCc4ccccc4C3)CN2C1=O [Compound 1013]	< 100	< 100	–
O=C(N[C@H]1CCCCC/C=C\[C@@H]2C[C@@]2(C(=O)NC(=O)C2CC2)NC(=O)[C@@H]2C[C@@H](OC(=O)N3CCc4ccccc4C3)CN2C1=O)OC1CCCC1 [Compound 706]	< 100	< 100	–
